pIC50: −log10 of the molar value.
Tests used:
osteocalcin = experiment: Serum osteocalcin suppression, 28-day repeat dose mouse model; assay type: in vivo; settings: for Osteocalcin Suppression (ED80 dose): oral gavage 28 days, serum osteocalcin; for Serum osteocalcin (OC) EAUC50 / Serum osteocalcin (OC) EAUC80: data set 2, 28-day repeat dose model
[1] = target: full-length glucocorticoid (GR) protein (Homo sapiens (Human), UniProt P04150); experiment: Glucocorticoid receptor fluorescence polarization ligand binding (GRFP) assay
From the text: The glucocorticoid receptor fluorescence polarization ligand binding (GRFP) assay is used to evaluate direct binding of testing compounds to full-length glucocorticoid (GR) protein. Reagents for this assay are purchased from Invitrogen in a test kit. A fluorescent labeled GR ligand is used as a fluorescent tracer and test compounds compete with the fluorescent tracer for GR binding. The change in polarization value in the presence of test compounds is due to binding of test compounds to GR and is used to determine IC50 and relative binding affinity of test compounds for GR.

IL-6 = IL-6 production in IL-1β-stimulated A549 cells; assay type: cell-based, human
Experimental: IL-6 IC50 and % Inhibition
Human A549 lung epithelial cells (American Type Culture Collection, Rockville, Md.) were cultured in Kaighn's F-12K medium with penicillin-streptomycin (10 U/mL) and 10% heat-inactivated fetal bovine serum (all from Invitrogen, Grand Island, N.Y.). A549 cells were plated at a density of 30,000 cells/well in 96-well plates and incubated overnight at 37° C. and with 5% CO2. The cells were serum-starved by replacing the growth medium with serum-free Kaighn's F-12K medium with penicillin-streptomycin (10 U/mL) and, again, incubating overnight at 37° C. and with 5% CO2. On the third day, the medium was replaced with fresh serum-free medium and the cells were incubated with or without compound (vehicle was DMSO at 0.1% maximum concentration) for approximately 1 hour and then stimulated with 1 ng/mL recombinant human IL-1β (R&D Systems, Minneapolis, Minn.) for 20 hours at 37° C. and with 5% CO2. Cell supernatants were collected for determination of IL-6 levels using MSD (Meso Scale Discovery, Gaithersburg, Md.) 96-well Single Spot plates as per the manufacturer's instructions. Plates were read with an MSD Sector Imager 6000. […] Vehicle was used to define the 0% inhibition control. Percent inhibition for each compound concentration, relative to these controls, was calculated using Excel (Microsoft, Redmond, Wash.). […]

[2] = tested on: Mouse Collagen-Induced Arthritis; experiment: Therapeutic mouse collagen-induced arthritis (mCIA) model; assay type: in vivo
From the text: (§1) Mouse Collagen-induced arthritis is a commonly used chronic, preclinical model of rheumatoid arthritis in which joint swelling and bone destruction occur following immunization with type II collagen. Reduction of disease incidence and severity has been shown previously to be predictive of disease-modification and signs and symptoms mitigation, respectively, in a clinical setting.
In the therapeutic mCIA model, induction of disease incidence and severity was synchronized via LPS stimulation. Male DBA/J mice were immunized with 100 ug of bovine type II collagen (bCII) on day 0. All mice received an intraperitoneal injection of 20 μg of LPS on day 28 and disease was allowed to develop through day 34. At day 34, all mice had disease (incidence=100%) with an average severity score of seven. Dosing of compounds was initiated in the therapeutic mode on day 34 and continued through day 49. Different treatments were compared by measuring the decrease in incidence (i.e., resolution of disease) and the decrease in severity of paw swelling over time.

[3] = tested on: Mouse Collagen-Induced Arthritis; experiment: Traditional mouse collagen-induced arthritis (mCIA) model; assay type: in vivo
Experimental: as §1
In the traditional mCIA model, male DBA/J mice were immunized with 50 μg chick type II collagen (cCII) in complete Freund's adjuvant and then boosted 21 days later with 50 μg cCII in incomplete Freund's adjuvant. Treatment with compounds was initiated on the morning of the boost and continued for 56 days. The effectiveness of treatment was measured by disease incidence (i.e., number of mice showing any sign of disease) and disease severity, both of which were measured twice a week.

TNFα = experiment: LPS-induced serum TNFα suppression, 28-day repeat dose mouse model; assay type: in vivo
[4] = tested on: house dust mite-induced BAL inflammatory cell influx; experiment: House dust mite model of asthma, BAL fluid cell infiltration; assay type: in vivo, mouse; settings: mice, 0.1, 1 and 10 mg/kg, p.o., b.i.d.
[5] = Solubility and intrinsic dissolution; assay type: physicochemical; settings: compared with Example 1
[6] = tested on: cortical bone formation rate; experiment: Cortical bone histomorphometry, bone formation rate (BFR); assay type: in vivo, mouse
Experimental: Sigma-Aldrich, St. […] Calcein incorporates into the bone mineral and allows measurement of bone formation rate. Calcein was dissolved in 2% sodium bicarbonate. During the tissue harvest, the left tibiae were excised and cleaned for cortical histomorphometry measurements. After all skin and muscle were removed, tibiae were placed in 70% ethanol (4° C.) in the dark for a minimum of 24 hours. Ground transverse sections were used for histomorphometric analysis of cortical bone. Bones were sectioned using a low-speed saw (Isomet, Buehler, Lake Bluff, Ill.) equipped with a diamond wafer blade. The end of each tibia was removed proximal to tibia-fibula synostosis and a […] cross-section was cut. Using a roughened glass plate and a cork, sections were ground to […] until transparent and all labels were distinguishable under a fluorescent microscope. […] Sigma-Aldrich, St. Louis, Mo.). Sections were mounted using Eukitt Quick Mounting Medium (#03989, Sigma-Aldrich, St. Louis, Mo.) after which coverslip was applied. […] Bone formation rate was calculated by the following equation: (Inter-label width/Label interval)*(Labeled perimeter/Bone perimeter). At least five samples were measured from each treatment group in each study.

[7] = Plasma exposure (AUC) in the mouse; assay type: in vivo
From the text: Drug exposure, defined as drug plasma concentrations integrated over time
Due to blood volume sampling limitations in mice, AUC(0-4 hr) values were used to make pharmacodynamic comparisons.

[8] = data set 2, 28-day repeat dose model, unit assumed
[9] = data set 2, 28-day repeat dose model

Sequence of full-length glucocorticoid (GR) protein (P04150 whole entry): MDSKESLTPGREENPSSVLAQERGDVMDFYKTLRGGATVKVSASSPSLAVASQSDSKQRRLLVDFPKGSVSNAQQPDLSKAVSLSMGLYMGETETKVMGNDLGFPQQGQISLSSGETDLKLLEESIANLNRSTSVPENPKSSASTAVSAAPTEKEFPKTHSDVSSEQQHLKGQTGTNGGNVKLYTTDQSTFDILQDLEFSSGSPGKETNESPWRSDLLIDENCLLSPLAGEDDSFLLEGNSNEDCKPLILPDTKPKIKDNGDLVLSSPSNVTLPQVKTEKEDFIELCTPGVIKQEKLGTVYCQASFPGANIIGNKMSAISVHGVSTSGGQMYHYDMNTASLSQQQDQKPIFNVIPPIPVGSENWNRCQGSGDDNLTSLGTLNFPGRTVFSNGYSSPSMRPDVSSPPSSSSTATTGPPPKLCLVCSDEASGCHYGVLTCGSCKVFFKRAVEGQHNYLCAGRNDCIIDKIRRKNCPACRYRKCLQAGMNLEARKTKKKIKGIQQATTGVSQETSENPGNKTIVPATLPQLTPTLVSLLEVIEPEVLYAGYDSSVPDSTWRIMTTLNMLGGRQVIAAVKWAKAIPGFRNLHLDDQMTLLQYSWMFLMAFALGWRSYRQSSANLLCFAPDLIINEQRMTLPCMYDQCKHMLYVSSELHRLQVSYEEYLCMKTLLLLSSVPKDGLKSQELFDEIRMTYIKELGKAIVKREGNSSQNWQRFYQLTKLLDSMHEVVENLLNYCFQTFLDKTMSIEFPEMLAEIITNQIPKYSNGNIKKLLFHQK

Cc1cnc(NC(=O)c2ccc3c(c2)CC[C@@H]2C[C@@](O)(C(F)(F)F)CC[C@@]32Cc2ccccc2)c(C)n1 [Comparator B, (4βS,7R,8αR)-4β-benzyl-N-(3,5-dimethylpyrazin-2-yl)-7-hydroxy-7-(trifluoromethyl)-4β,5,6,7,8,8α,9,10-octahydrophenanthrene-2-carboxamide]
Osteocalcin Suppression (ED80 dose) (osteocalcin; mouse): >10 mg/kg

Cc1ncccc1NC(=O)c1ccc2c(c1)CC[C@@H]1C[C@@](O)(CCC(F)(F)F)CC[C@@]21Cc1ccccc1 [Comparator C, (4βS,7S,8αR)-4β-benzyl-7-hydroxy-N-(2-methylpyridin-3-yl)-7-(3,3,3-trifluoropropyl)-4β,5,6,7,8,8α,9,10-octahydrophenanthrene-2-carboxamide]
Osteocalcin Suppression (ED80 dose) (osteocalcin; mouse): 2.84 mg/kg

Cc1ccncc1NC(=O)c1ccc2c(c1)CC[C@@H]1C[C@@](O)(C(F)(F)F)CC[C@@]21Cc1ccccc1 [Comparator D, (4βS,7R,8αR)-4β-benzyl-7-hydroxy-N-(4-methylpyridin-3-yl)-7-(trifluoromethyl)-4β,5,6,7,8,8α,9,10-octahydrophenanthrene-2-carboxamide]
Osteocalcin Suppression (ED80 dose) (osteocalcin; mouse): 3.06 mg/kg

Cc1ncccc1NC(=O)c1ccc2c(c1)C(=O)C[C@@H]1C[C@@](O)(C(F)(F)F)CC[C@@]21Cc1ccccc1 [Comparator E, (4βS,7R,8αS)-4β-benzyl-7-hydroxy-N-(2-methylpyridin-3-yl)-10-oxo-7-(trifluoromethyl)-4β,5,6,7,8,8α,9,10-octahydrophenanthrene-2-carboxamide]
Osteocalcin Suppression (ED80 dose) (osteocalcin; mouse): 1.71 mg/kg

Cc1ncccc1NC(=O)c1ccc2c(c1)[C@H](O)C[C@@H]1C[C@@](O)(C(F)(F)F)CC[C@@]21Cc1ccccc1 [Comparator F, (4βS,7R,8αR,10R)-4β-benzyl-7,10-dihydroxy-N-(2-methylpyridin-3-yl)-7-(trifluoromethyl)-4β,5,6,7,8,8α,9,10-octahydrophenanthrene-2-carboxamide]
Osteocalcin Suppression (ED80 dose) (osteocalcin; mouse): >10 mg/kg

Cc1c(NC(=O)c2ccc3c(c2)CC[C@@H]2C[C@@](O)(C(F)(F)F)CC[C@@]32Cc2ccccc2)ccc[n+]1[O-] [Comparator G]
pIC50 [1]: 8.67

Cc1ncccc1NC(=O)c1ccc2c(c1)CC[C@@H]1C[C@@](O)(C(F)F)CC[C@@]21Cc1ccccc1 [Comparator H, (4βS,7R,8αR)-4β-benzyl-7-(difluoromethyl)-7-hydroxy-N-(2-methylpyridin-3-yl)-4β,5,6,7,8,8α,9,10-octahydrophenanthrene-2-carboxamide]
Osteocalcin Suppression (ED80 dose) (osteocalcin; mouse): 1.46 mg/kg

Cc1ncccc1NC(=O)c1ccc2c(c1)C=C[C@@H]1C[C@@](O)(C(F)(F)F)CC[C@@]21Cc1ccccc1 [Comparator I, (4βS,7R,8αS)-4β-benzyl-7-hydroxy-N-(2-methylpyridin-3-yl)-7-(trifluoromethyl)-4β,5,6,7,8,8α-hexahydrophenanthrene-2-carboxamide]
Osteocalcin Suppression (ED80 dose) (osteocalcin; mouse): >20 mg/kg

Cc1ncc(NC(=O)c2ccc3c(c2)CC[C@@H]2C[C@@](O)(CCC(F)(F)F)CC[C@@]32Cc2ccccc2)c(C)n1 [Comparator J, (4βS,7S,8αR)-4β-benzyl-N-(2,4-dimethylpyrimidin-5-yl)-7-hydroxy-7-(3,3,3-trifluoropropyl)-4β,5,6,7,8,8α,9,10-octahydrophenanthrene-2-carboxamide]
Osteocalcin Suppression (ED80 dose) (osteocalcin; mouse): 3.58 mg/kg

Cc1ncccc1NC(=O)c1ccc2c(c1)CC[C@@H]1C[C@@](O)(C(F)(F)F)CC[C@@]21Cc1ccccc1 [Example 1, (4βS,7R,8αR)-4β-benzyl-7-hydroxy-N-(2-methylpyridin-3-yl)-7-(trifluoromethyl)-4β,5,6,7,8,8α,9,10-octahydrophenanthrene-2-carboxamide]
pIC50 (IL-6; IL-1β 1 ng/mL, listed as Example 1 free base): 9.44 | Disease incidence (therapeutic mCIA) EAUC50 ([2]; data set 2): 0.12 µg·h/mL | Disease incidence (therapeutic mCIA) EAUC80 ([2]; data set 2): 0.33 µg·h/mL | Disease severity (therapeutic mCIA) EAUC50 ([2]; data set 2, unit assumed): 0.09 µg·h/mL | Disease severity (therapeutic mCIA) EAUC80 ([2]; data set 2, unit assumed): 0.19 µg·h/mL | Therapeutic mCIA (ED50 dose) ([2]; mouse): less than 1 mg/kg | Disease incidence (traditional mCIA) EAUC80 ([3]; data set 2): 0.10 | Serum TNFα EAUC50 (TNFα; [8]): 0.22 µg·h/mL | Serum TNFα EAUC80 (TNFα; [8]): 0.33 µg·h/mL | Serum osteocalcin (OC) EAUC50 (osteocalcin): 1310 ng·h/mL | Serum osteocalcin (OC) EAUC80 (osteocalcin): 4150 ng·h/mL | cell infiltration into BAL fluid [4]: mitigated cell infiltration into BAL fluid dose-dependently

Cc1ncccc1NC(=O)c1ccc2c(c1)CC[C@@H]1C[C@@](OP(=O)(O)O)(C(F)(F)F)CC[C@@]21Cc1ccccc1 [Example 2, (2R,4αS,10αR)-4α-benzyl-7-((2-methylpyridin-3-yl)carbamoyl)-2-(trifluoromethyl)-1,2,3,4,4α,9,10,10α-octahydrophenanthren-2-yl dihydrogen phosphate]
solubility and intrinsic dissolution [5]: enhanced

C[C@]12C=CC(=O)C=C1CC[C@@H]1[C@@H]2[C@@H](O)C[C@@]2(C)[C@H]1CC[C@]2(O)C(=O)CO [Prednisolone]
IL-6 % Inhibition (IL-6; additional result (footnote a)): 100% | Disease severity (therapeutic mCIA) EAUC50 ([2]; AUC 0-4 hr, mouse): 0.38 µg·h/mL | Disease severity (therapeutic mCIA) EAUC80 ([2]; AUC 0-4 hr, mouse): 1.19 µg·h/mL | Disease incidence (therapeutic mCIA) EAUC50 ([2]; data set 2): 0.68 µg·h/mL | Disease incidence (therapeutic mCIA) EAUC80 ([2]; data set 2): 1.38 µg·h/mL | Disease severity (therapeutic mCIA) EAUC50 ([2]; data set 2, unit assumed): 0.38 µg·h/mL | Disease severity (therapeutic mCIA) EAUC80 ([2]; data set 2, unit assumed): 1.19 µg·h/mL | Therapeutic mCIA (ED80 dose) ([2]; mouse): 5.5 mg/kg | Disease incidence (traditional mCIA) EAUC50 ([3]; AUC 0-4 hr, mouse): 0.25 µg·h/mL | Disease incidence (traditional mCIA) EAUC80 ([3]; AUC 0-4 hr, mouse): 0.60 µg·h/mL | Disease incidence (traditional mCIA) EAUC80 ([3]; data set 2): 0.50 | Serum TNFα EAUC50 (TNFα; AUC 0-4 hr, mouse): 0.81 µg·h/mL | Serum TNFα EAUC80 (TNFα; AUC 0-4 hr, mouse): 0.95 µg·h/mL | Serum TNFα EAUC50 (TNFα; [8]): 0.82 µg·h/mL | Serum TNFα EAUC80 (TNFα; [8]): 0.95 µg·h/mL | TNFα Suppression (ED80 dose) (TNFα; mouse, oral gavage 28 days, LPS-induced serum TNFα): 2.10 mg/kg | Serum osteocalcin EAUC50 (osteocalcin; AUC 0-4 hr, mouse): 560 ng·h/mL | Serum osteocalcin EAUC80 (osteocalcin; AUC 0-4 hr, mouse): 1600 ng·h/mL | Serum osteocalcin (OC) EAUC50 (osteocalcin): 560 ng·h/mL | Serum osteocalcin (OC) EAUC80 (osteocalcin): 1640 ng·h/mL | Cortical bone formation rate (BFR) EAUC50 ([6]; AUC 0-4 hr, mouse): 0.09 µg·h/mL | Cortical bone formation rate (BFR) EAUC80 ([6]; AUC 0-4 hr, mouse): 0.60 µg·h/mL | Cortical bone formation rate (BFR) EAUC50 [6, 9]: 0.10 | Cortical bone formation rate (BFR) EAUC80 [6, 9]: 0.66 | AUC(0-4 hr) as share of AUC(0-24 hr) [7]: more than 95%
